Measurements as given in PubChem BioAssay AID1259411 (Chemical Carcinogenesis Research Information System (CCRIS), 2018).
Calls of active or inactive are those of the source. No rule for the calls is given here.

Test system: rodent carcinogenicity bioassays, tumor incidence
Test: CCRIS carcinogenicity studies
Summary of the method: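 Archive of carcinogenicity, mutagenicity, tumor promotion and tumor inhibition results drawn from journals, NCI reports and other sources, expert-reviewed; covers 1985-2011 and is no longer updated.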

In the case of `CCCCN(CC)N=O`, the carcinogen call (Species: MOUSE, Strain/Sex: DBA/MALE,FEMALE, Route: ORAL, Dose: 10 MG/KG/D IN DRINKING WATER (TOTAL MEAN DOSE 2360 MG/KG), Tumor Site: Type of Lesion: FORESTOMACH: SQUAMOUS CELL CARCINOMA) is reported as “active; positive” and the carcinogen call (Species: RAT, Strain/Sex: WISTAR/MALE, FEMALE, Route: ORAL, Dose: 0, 10 MG/KG/D FOR 4 WK THEN 5 MG/KG/D FOR DURATION OF STUDY (STUDY DURATION: LIFETIME), Tumor Site: Type of Lesion: ESOPHAGUS: CARCINOMA, PAPILLOMA, PHARYNX: PAPILLOMA, ORAL CAVITY: PAPILLOMA, LIVER: ANGIOSARCOMA, HEPATOCELLULAR CARCINO, Tumor Site: Type of Lesion: ESOPHAGUS: CARCINOMA, PAPILLOMA, PHARYNX: PAPILLOMA, ORAL CAVITY: PAPILLOMA, LIVER: ANGIOSARCOMA, HEPATOCELLULAR CARCINO) is reported as “active; positive”.

`Nc1ccc(-n2c3ccccc3c3ccncc32)cc1` was tested, and the carcinogen call (Species: RAT, Strain/Sex: F344/MALE (30-33/GROUP), FEMALE (28-32/GROUP), Route: ORAL, Dose: 0, 20, 40 PPM IN DIET FOR 85 WK (STUDY DURATION: 85 WK), Dose: 0, 20, 40 PPM IN DIET FOR 85 WK (STUDY DURATION: 85 WK), Tumor Site: Type of Lesion: LIVER: ADENOMA, HEPATOCELLULAR CARCINOMA, COLON: ADENOCARCINOMA, THYROID: FOLLICULAR CELL ADENOMA AND CARCINOMA, MONONUC, Tumor Site: Type of Lesion: LIVER: ADENOMA, HEPATOCELLULAR CARCINOMA, COLON: ADENOCARCINOMA, THYROID: FOLLICULAR CELL ADENOMA AND CARCINOMA, MONONUC) was “active; positive”.

`CCNC(=O)N(C)N=O` was tested, and the carcinogen call (Species: RAT, Strain/Sex: F344/FEMALE, Route: GAVAGE, Dose: 0, 20, 40 UMOL/WK IN CORN OIL/ETHYL ACETATE (2: 1) FOR 30 WK (LOW DOSE) OR 15 WK (HIGH DOSE) FOR TOTAL DOSES OF 0, 0.6;, Dose: 0, 20, 40 UMOL/WK IN CORN OIL/ETHYL ACETATE (2: 1) FOR 30 WK (LOW DOSE) OR 15 WK (HIGH DOSE) FOR TOTAL DOSES OF 0, 0.6;, Tumor Site: Type of Lesion: NERVOUS SYSTEM: TUMOR, THYMUS: TUMOR) was “active; positive”, the carcinogen call (Species: RAT, Strain/Sex: F344/FEMALE, Route: ORAL, Dose: 0, 20, 40 UMOL/WK IN DRINKING WATER FOR 30 WK FOR TOTAL DOSES OF 0, 0.6, 1.2 MMOL (STUDY DURATION: LIFETIME), Dose: 0, 20, 40 UMOL/WK IN DRINKING WATER FOR 30 WK FOR TOTAL DOSES OF 0, 0.6, 1.2 MMOL (STUDY DURATION: LIFETIME), Tumor Site: Type of Lesion: NERVOUS SYSTEM: TUMOR, KIDNEY: TUMOR) was “active; positive” and the carcinogen call (Species: RAT, Strain/Sex: F344/MALE, Route: GAVAGE, Dose: 0, 20, 40 UMOL/WK IN CORN OIL/ETHYL ACETATE (2: 1) FOR 30 WK FOR TOTAL DOSES OF 0, 0.6, 1.2 MMOL (STUDY DURATION: LIFETI, Dose: 0, 20, 40 UMOL/WK IN CORN OIL/ETHYL ACETATE (2: 1) FOR 30 WK FOR TOTAL DOSES OF 0, 0.6, 1.2 MMOL (STUDY DURATION: LIFETI, Tumor Site: Type of Lesion: NERVOUS SYSTEM: TUMOR, TESTIS: MESOTHELIOMA) was “active; positive”. For the same compound, the carcinogen call (Species: RAT, Strain/Sex: F344/MALE, Route: ORAL, Dose: 0, 20, 40 UMOL/WK IN DRINKING WATER FOR 30 WK FOR TOTAL DOSES OF 0, 0.6, 1.2 MMOL (STUDY DURATION: LIFETIME), Dose: 0, 20, 40 UMOL/WK IN DRINKING WATER FOR 30 WK FOR TOTAL DOSES OF 0, 0.6, 1.2 MMOL (STUDY DURATION: LIFETIME), Tumor Site: Type of Lesion: LUNG: TUMOR, NERVOUS SYSTEM: TUMOR) was “active; positive”.

With `CC(C)(Oc1ccc(C2CC2(Cl)Cl)cc1)C(=O)O` (centres undefined) the carcinogen call (Species: RAT, Strain/Sex: F344/MALE, Route: ORAL, Dose: 10 MG/KG IN DIET FOR 60 WK, Tumor Site: Type of Lesion: LIVER: HEPATOCELLULAR CARCINOMA) was “active; positive”.

For `CN(C)N`, the carcinogen call (Species: HAMSTER, Strain/Sex: SYRIAN/FEMALE, Route: SUBCUTANEOUS, Dose: 0, 8, 17, 35 MG/KG BW IN 0.9% SALINE 1/WK FOR LIFE (STUDY DURATION: LIFE SPAN), Dose: 0, 8, 17, 35 MG/KG BW IN 0.9% SALINE 1/WK FOR LIFE (STUDY DURATION: LIFE SPAN)) was “inactive; negative”, the carcinogen call (Species: HAMSTER, Strain/Sex: SYRIAN/MALE, Route: SUBCUTANEOUS, Dose: 0, 8, 17, 35 MG/KG BW IN 0.9% SALINE 1/WK FOR LIFE (STUDY DURATION: LIFE SPAN), Dose: 0, 8, 17, 35 MG/KG BW IN 0.9% SALINE 1/WK FOR LIFE (STUDY DURATION: LIFE SPAN)) was “inactive; negative” and the carcinogen call (Species: MOUSE, Route: ORAL, Tumor Site: Type of Lesion: LUNG, BLOOD VESSELS, LIVER, KIDNEY, Tumor Site: Type of Lesion: LUNG, BLOOD VESSELS, LIVER, KIDNEY) was “active; positive”.

`CCCCC(CC)COS(=O)(=O)O` (centres undefined) was tested, and the carcinogen call (Species: MOUSE, Strain/Sex: B6C3F1/FEMALE, Route: ORAL, Dose: 0, 10000, 20000 PPM IN DIET FOR 102-104 WK (STUDY DURATION: 102-104 WK), Dose: 0, 10000, 20000 PPM IN DIET FOR 102-104 WK (STUDY DURATION: 102-104 WK), Tumor Site: Type of Lesion: LIVER: CARCINOMA, CARCINOMA OR ADENOMA) was “active; positive”, the carcinogen call (Species: MOUSE, Strain/Sex: B6C3F1/MALE, Route: ORAL, Dose: 0, 5000, 10000 PPM IN DIET FOR 102-104 WK (STUDY DURATION: 102-104 WK), Dose: 0, 5000, 10000 PPM IN DIET FOR 102-104 WK (STUDY DURATION: 102-104 WK)) was “inactive; negative” and the carcinogen call (Species: RAT, Strain/Sex: F344/FEMALE, Route: ORAL, Dose: 0, 10000, 20000 PPM IN DIET FOR 102-104 WK (STUDY DURATION: 102-104 WK), Dose: 0, 10000, 20000 PPM IN DIET FOR 102-104 WK (STUDY DURATION: 102-104 WK)) was “inactive; negative”. The carcinogen call (Species: RAT, Strain/Sex: F344/MALE, Route: ORAL, Dose: 0, 10000, 20000 PPM IN DIET FOR 102-104 WK (STUDY DURATION: 102-104 WK), Dose: 0, 10000, 20000 PPM IN DIET FOR 102-104 WK (STUDY DURATION: 102-104 WK)) was “inactive; negative”.

In the case of `CCCCCCCC/C=C\CCCCCCCC(=O)O`, the carcinogen call (Species: MOUSE, Strain/Sex: B6C3F1/FEMALE, Route: ORAL, Dose: 0, 0.25, 1.0% IN DRINKING WATER FOR 96 WK (STUDY DURATION: 104 WK), Dose: 0, 0.25, 1.0% IN DRINKING WATER FOR 96 WK (STUDY DURATION: 104 WK)) is reported as “inactive; negative”, the carcinogen call (Species: MOUSE, Strain/Sex: B6C3F1/MALE, Route: ORAL, Dose: 0, 0.25, 1.0% IN DRINKING WATER FOR 96 WK (STUDY DURATION: 104 WK), Dose: 0, 0.25, 1.0% IN DRINKING WATER FOR 96 WK (STUDY DURATION: 104 WK)) is reported as “inactive; negative” and the carcinogen call (Species: RAT, Strain/Sex: F344/FEMALE, Route: ORAL, Dose: 0, 2.5, 5% IN DRINKING WATER FOR 108 WK (STUDY DURATION: 2 YR), Dose: 0, 2.5, 5% IN DRINKING WATER FOR 108 WK (STUDY DURATION: 2 YR)) is reported as “inactive; negative”. The carcinogen call (Species: RAT, Strain/Sex: F344/MALE, Route: ORAL, Dose: 0, 2.5, 5% IN DRINKING WATER FOR 108 WK (STUDY DURATION: 2 YR), Dose: 0, 2.5, 5% IN DRINKING WATER FOR 108 WK (STUDY DURATION: 2 YR)) was “inactive; negative”.
